Consider 35 compounds from a melting point compilation (Tetko et al.; mined from patent text by program, amines drawn as free bases though some values may be those of a salt).

Some results are limits rather than exact numbers.

In the case of `CCCC(=O)OCn1cc(F)c(=O)[nH]c1=O`, the melting point (commonly the temperature, or range, at which the solid turns liquid) is 96 to 98 °C. In turn, `O=C(O)CCCC1Cc2ccc(Cl)cc2C1=O` (stereo not given) yielded a melting point of 141 to 142 °C.

Compound `Clc1ccc(CNN2C=CN=CC2)cc1` displayed a melting point of 86 to 87 °C.

For the compound `CSc1cc(Cl)ccc1C(=O)CC#N`, the melting point was in the range of 139 to 141 °C. In turn, `CCOC(=O)C(=O)Nc1cccc(S(C)=O)c1C(N)=O` (stereo not given) registered a melting point of 164 to 166 °C. On to `CCCOC(=O)Cc1ccc2c(c1)C(=O)c1ccccc1CO2`, for which the melting point lay in the range of 30 to 32 °C.

`CC(=O)Nc1ccc(C2=NNC(=O)C3CC23)cc1` (stereo not given) returned a melting point of 269 to 270 °C.

With `Cc1noc2cc3c(cc12)C1(CO3)C(=O)N(Cc2ccc(-c3cc(N)n[nH]3)cc2)c2ccccc21` (stereo not given), the melting point was in the range of 191 to 195 °C. Compound `O=C(NCc1ccc(Cl)cc1)c1cn2c(CCO)cc3cc(CN4CCOCC4)cc(c1=O)c32` yielded a melting point of 169 to 172 °C. In the case of `CC(=O)Oc1ccc(Oc2cccc(C(=O)O)c2)cc1`, the melting point was in the range of 141 to 143 °C.

For the compound `Oc1ncc(-c2cccc(F)c2)cn1`, the melting point was in the range of 259 to 261 °C. For `CSc1nn2c(N)cc(C)nc2c1S(=O)(=O)c1ccc(C(C)(C)C)cc1`, the melting point is over 230 °C. In turn, `CCCc1sc(-c2ccccc2)nc1OC(=O)NC(C)(C)C` returned a melting point of 97 to 98 °C. For the compound `N#CCOc1ccc(CN2C(=O)c3cccc(NC(=O)c4ccc(Cl)s4)c3C2=O)cc1`, the melting point was found to be 199 °C. The compound `CCOC(=O)c1ncoc1-c1ccc([N+](=O)[O-])cc1Cl` gave a melting point of 140 to 141 °C. The compound `Cc1ccc(S(=O)(=O)NC[C@H](C)N)cc1` returned a melting point of 82 to 86 °C. `CCCCc1nn(-c2cc(NC(=O)CC)ccc2C(F)(F)F)c(=O)n1Cc1ccc(-c2ccccc2S(=O)(=O)NC(=O)c2ccccc2Cl)cc1` yielded a melting point of 102 to 105 °C. Consider `COc1ccc(-n2nc(O)c3[nH]c4cc(Cl)ccc4c(=O)c3c2=O)c(C)c1`, for which the melting point was in the range of 354 to 356 °C.

As to `COc1ccccc1N1CCN(C(=O)[C@@H](Cc2ccncc2)NC(=O)OC(C)(C)C)CC1`, the melting point stood at 105 °C. In turn, `CN1CC(CO)Cc2ccc(NC(=O)/C=C/c3ccc(C(F)(F)F)cc3)cc21` (stereo not given) gave a melting point of 167 to 169 °C. On to `CC(C)C[C@H](NC(=O)[C@H](Cc1ccccc1)NC(=O)CCC(=O)O)C(=O)O`, for which the melting point is 156 to 158 °C. `Cc1c(NC(=O)c2ccc(-c3ccc(Cl)s3)cc2F)ccc2cc(CN3CCCCC3)cnc12` had a melting point of 205 to 206 °C. Take `CC1(C)CCC(C)(C)c2c(O)cc(C=O)cc21`: the melting point is 144 °C. As for `CCOc1ccccc1-c1nc2c(C(N)=O)cccc2c(=O)[nH]1`, the melting point is 252 to 254 °C. Next, `COc1ccc(Cl)cc1C1(F)C(=O)Nc2ccc(Br)cc21` (stereo not given): 206 to 208 °C. The compound `CC(C)(C)NC(=O)NCC#CCNC(=O)Nc1nc2c(s1)-c1c(cnn1-c1ccccc1)CC2` displayed a melting point of 196 °C. The compound `O=Cc1ccc2c3c1ccc1cccc(c13)C2` had a melting point of 209 to 212 °C. In turn, `N#Cc1cccc(CSc2nnc(-c3ccc4nccn4c3)o2)c1` registered a melting point of 175 to 176 °C. `CCCCC(=O)CC1c2ccccc2C(=O)N1c1ccc2ccc(OC)nc2n1` (stereo not given): the melting point came out at 161 °C. The result for `Nc1nc2c(s1)CCN(CC1=Cc3ccccc3CC1)CC2` reads 158 to 160 °C; that for `O=C(CNc1ccc(Cl)cc1)NCCc1ccc(OCc2ccccc2)c(OCc2ccccc2)c1`, 121 °C. Compound `NS(=O)(=O)c1cccc(NC(=O)c2cnn3c(C(F)F)cc(-c4ccc(C(F)(F)F)c(F)c4)nc23)c1` had a melting point of 262 °C. The compound `COc1ccc(C2=NN(CCCCN)C(=O)[C@H]3CC=CC[C@@H]23)cc1OC` (relative stereo) gave a melting point of 108 to 109 °C. `CON(C)C(=O)Nc1ccc(OCCc2ccc3c(c2)CC(C)(C)O3)nc1` gave a melting point of 79 to 80 °C. The result for `Cc1cccc2c(-c3ccc(Cl)cc3)nccc12` reads 122 to 124 °C.
